According to patent US8343475B2, “Small cationic antimicrobial peptides” (priority 2006, dated 2013):
Values after ≈ are worked out from the molar mass of the structure shown. Residues, ends and D or L forms follow the SMILES beside them.

Legend:
[1] = system: MCP-3 release by human PBMC; test: Chemokine induction in PBMC (capture ELISA); assay type: cell-based; conditions: background (6) subtracted
How it was run: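 Human PBMC from healthy donors (Ficoll-isolated), 7.5×10^5 cells at 0.75–1×10^6 cells/ml, treated with peptides at 20 or 100 μg/ml for 24 h at 37° C, 5% CO2. MCP-3 in cell-free supernatants measured by capture ELISA.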

[2] = system: MCP-1 release by human PBMC; test: Chemokine induction in PBMC (capture ELISA); assay type: cell-based; conditions: background (204) subtracted
How it was run: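 Heparinized blood from healthy volunteers; Ficoll-isolated human PBMC (7.5×10^5) treated with peptides at 20 or 100 μg/ml for 24 hours at 37° C, 5% CO2. Cell-free supernatants assayed for MCP-1 by capture ELISA.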

[3] = system: CXCL1 (Gro-α) release by human PBMC; test: Chemokine induction in PBMC (capture ELISA); assay type: cell-based; conditions: background (196) subtracted
How it was run: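 Human PBMC from healthy donors' heparinised blood (Ficoll), 7.5×10^5 cells treated with 20 or 100 μg/ml peptide for 24 h at 37° C, 5% CO2. Cell-free supernatants assayed for CXCL1 by capture ELISA.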

[4] = system: ESBL E. coli clinical strain 64771; assay type: cell-based; conditions: ESBL clinical strain 64771
How it was run: (§1)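 Broth microdilution in Mueller Hinton medium, peptides serially diluted in 0.01% acetic acid with 0.2% BSA in polypropylene plates. Inoculum 2-7×10^5 CFU/ml, incubated overnight at 37° C. MIC is the lowest concentration with no visible growth.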

[5] = system: ESBL Klebsiella pneumonia clinical strain 63575; assay type: cell-based
How it was run: as §1

[6] = system: multidrug resistant Pseudomonas maltophilia ATCC13637; assay type: cell-based
How it was run: as §1

[7] = system: S. aureus; test: Mouse model of aggressive bacterial infection (intraperitoneal); assay type: in vivo; conditions: 1.6×10^10 CFU IP; 4 mg/kg peptide IP four hours post infection; total infection time 24 hours; saline controls 100% death
Experimental: FIG. 10. Ability of new antimicrobial peptides HHC-10 and HHC-36 to protect mice against Staph aureus infections. Bacterial loads in the peritoneal lavage from individual mice after 24 hours of infection are shown (solid circles). Dead animals were assigned the highest colony forming unit (CFU) count obtained in the experiment. The solid line represents the arithmetic mean for each group.
(§2) FIG. 18. […] Mice were treated with 1.6×10^10 CFU of S. aureus intraperitoneally. Four hours post infection they received a dose of 8 mg/kg peptide IP. The infection was allowed to progress for 4 or 24 hours after which mice were euthanaised and plate counts of staphylococci surviving in the peritoneum were determined. Bacterial loads in the peritoneal lavage from individual mice after 24 hours of infection are shown (solid circles). The solid line represents the arithmetic mean for each group.
as §2, with “19.” for “18.”
To further confirm this, a mouse model of aggressive bacterial infection, widely used to assess antibiotic efficacy, was utilized. Mice were treated with 1.6×10^10 CFU IP. Four hours post infection they received a dose of 4 mg/kg peptide IP. The infection was allowed to progress for 20 more hours, for a total infection time of 24 hours.
These immunomodulatory activities led to protection against infections by S. aureus. Briefly a mouse model of aggressive bacterial infection, widely used to assess antibiotic efficacy, was utilized. […] The infection was allowed to progress for 4 or 24 hours after which mice were euthanaised and plate counts of staphylococci surviving in the peritoneum were determined.

[8] = system: Staphylococcus aureus ATCC25923; assay type: cell-based; conditions: ATCC25923
How it was run: (§3)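 No-growth endpoint after overnight culture at 37° C in Mueller Hinton broth. Inoculum: 2-7×10^5 CFU/ml. Peptide diluent: 0.01% acetic acid, 0.2% BSA.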

[9] = system: Enterococcus faecalis ATCC29212; assay type: cell-based; conditions: ATCC29212
How it was run: as §3

[10] = system: clinical isolates of MRSA; assay type: cell-based, Staphylococcus aureus
How it was run: (§4)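 Modified broth microdilution in Mueller Hinton medium, peptides serially diluted in 0.01% acetic acid with 0.2% BSA in polypropylene plates. Inoculum 2-7×10^5 CFU/ml, overnight incubation at 37° C; MIC taken as lowest concentration with no visible growth.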

[11] = system: Liverpool Epidemic Strains; assay type: cell-based, Pseudomonas aeruginosa
How it was run: as §4

[12] = system: ESBL E. cloacae; assay type: cell-based, Enterobacter cloacae
How it was run: as §4

[13] = system: Pseudomonas aeruginosa PAO1 strain H103; assay type: cell-based
How it was run: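 Modified broth microdilution MIC in Mueller Hinton medium, peptides diluted in 0.01% acetic acid/0.2% BSA, polypropylene plates. Inoculum 2-7×10^5 CFU/ml, overnight at 37 °C; MIC is the lowest concentration with no visible growth.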

[14] = system: VRE Vancomycin resistant Enterococcus faecalis clinical isolates; assay type: cell-based
How it was run: as §1

[15] = system: multidrug resistant Brazilian clinical isolates of P. aeruginosa; assay type: cell-based, Pseudomonas aeruginosa
How it was run: as §4

[16] = LDH release; assay type: cell-based; set-up: dose or concentration left out as unconfirmed
Experimental: In addition the following peptides were tested for LDH release: 1002, 1005, 1012, 1010, 1013, 1018, 1020, 1026, 1028, 1032, 1033, 1035, and 1037.

[17] = system: lab isolate of Candida albicans; assay type: cell-based; conditions: lab isolate of
How it was run: as §3

[18] = system: clinical isolate of Staphylococcus epidermidis; assay type: cell-based; conditions: clinical isolate of
How it was run: as §3

[19] = system: wild-type Salmonella enterica ssp. typhimurium; assay type: cell-based
How it was run: as §3

[20] = system: Escherichia coli UB1005; assay type: cell-based; conditions: UB1005
How it was run: as §3

[21] = system: IL8 release by human PBMC; test: Chemokine induction in PBMC (capture ELISA); assay type: cell-based; conditions: 20 or 100 μg/ml peptide, 24 hours (FIG. 14)
Experimental: FIG. 14. Induction of IL8 release by 7.5×10^5 human PBMC in response to treatment with 20 or 100 μg/ml of different peptides for 24 hours.
Venous blood (20 ml) from healthy volunteers was collected in Vacutainer® collection tubes containing sodium heparin as an anticoagulant (Becton Dickinson, Mississauga, ON) in accordance with UBC ethical approval and guidelines. Blood was diluted 1:1 with complete RPMI 1640 medium and separated by centrifugation over a Ficoll-Paque® Plus (Amersham Biosciences, Piscataway, N.J., USA) density gradient. White blood cells were isolated from the buffy coat, washed twice in RPMI 1640 complete medium, and the number of peripheral blood mononuclear cells (PBMC) was determined by trypan blue exclusion. PBMC (5×10^5) were seeded into 12-well tissue culture dishes (Falcon; Becton Dickinson) at 0.75 to 1×10^6 cells/ml at 37° C. in 5% CO2. The above conditions were chosen to mimic conditions for circulating blood monocytes entering tissues at the site of infection via extravasation.
Following incubation of the cells under various treatment regimens, the tissue culture supernatants were centrifuged at 1000×g for 5 min, then at 10,000×g for 2 min to obtain cell-free samples. Supernatants were aliquoted and then stored at −20° C. prior to assay for various chemokines by capture ELISA (eBioscience and BioSource International Inc., CA, USA respectively)

| Compound | Chemokine induction MCP-3 ([1]; 20 μg/ml peptide) [pg/mL] | Chemokine induction MCP-3 ([1]; 100 μg/ml peptide) [pg/mL] | Chemokine induction MCP-1 ([2]; 20 μg/ml peptide) [pg/mL] | Chemokine induction MCP-1 ([2]; 100 μg/ml peptide) [pg/mL] | Chemokine induction Gro-α ([3]; 20 μg/ml peptide) [pg/mL] | Chemokine induction Gro-α ([3]; 100 μg/ml peptide) [pg/mL] | MIC [4] [µM] | MIC [5] [µM] | MIC [6] [µM] | mice protected [7] [%] | MIC [8] [µM] | MIC [9] [µM] | MIC [10] [µM] | MIC [11] [µM] | MIC [12] [µM] | further results |
| --- | --- | --- | --- | --- | --- | --- | --- | --- | --- | --- | --- | --- | --- | --- | --- | --- |
| CC[C@H](C)[C@H](NC(=O)[C@H](Cc1c[nH]c2ccccc12)NC(=O)[C@H](CCCCN)NC(=O)[C@H](Cc1c[nH]c2ccccc12)NC(=O)[C@H](Cc1c[nH]c2ccccc12)NC(=O)[C@H](CCCNC(=N)N)NC(=O)[C@@H](N)CCCCN)C(=O)N[C@@H](CCCNC(=N)N)C(=O)N[C@@H](Cc1c[nH]c2ccccc12)C(N)=O [HHC10, KRWWKWIRW] (H-KRWWKWIRW-NH2; N-terminus assumed) | -1 | 49 | 48 | 3210 | -11 | 2 | 1.5 (≈ 2.17 µg/mL) | 6 (≈ 8.66 µg/mL) | 0.4 (≈ 0.578 µg/mL) | 40 | 3 (≈ 4.33 µg/mL) | 12 (≈ 17.3 µg/mL) | 1.5 (≈ 2.17 µg/mL) | 0.8 (≈ 1.16 µg/mL) | 3 (≈ 4.33 µg/mL) | – |
| CC[C@H](C)[C@H](NC(=O)[C@H](CC(N)=O)NC(=O)[C@H](CCCCN)NC(=O)[C@H](Cc1ccccc1)NC(=O)[C@H](CCCNC(=N)N)NC(=O)[C@H](Cc1c[nH]c2ccccc12)NC(=O)[C@H](C)N)C(=O)N[C@@H](CCCNC(=N)N)C(=O)N[C@@H](CCCCN)C(N)=O [HHC126, AWRFKNIRK] (H-AWRFKNIRK-NH2; N-terminus assumed) | 3 | 0 | 314 | 104 | 75 | -2 | 223 (≈ 272 µg/mL) | >223 | >223 | – | 223 (≈ 272 µg/mL) | >223 | >223 | 111 (≈ 135 µg/mL) | >223 | antimicrobial activity against P. aeruginosa PAO1 (in words) ([13]; laboratory strain P. aeruginosa PAO1): did not return any generally active substances; MIC [14]: >223 µM; MIC [15]: >223 µM |
| CC[C@H](C)[C@H](NC(=O)[C@H](CCCNC(=N)N)NC(=O)[C@@H](NC(=O)[C@H](C)NC(=O)[C@@H](NC(=O)[C@@H](NC(=O)[C@H](CC(C)C)NC(=O)[C@H](CCCNC(=N)N)NC(=O)[C@@H](N)C(C)C)[C@@H](C)CC)C(C)C)C(C)C)C(=O)N[C@@H](Cc1c[nH]c2ccccc12)C(=O)N[C@@H](CCCNC(=N)N)C(=O)N[C@@H](CCCNC(=N)N)C(N)=O [compound 1018, VRLIVAVRIWRR] (H-VRLIVAVRIWRR-NH2) | – | – | – | – | – | – | – | – | – | – | – | – | – | – | – | LDH release [16]: None showed any LDH release |
| N=C(N)NCCC[C@H](NC(=O)[C@H](CCCNC(=N)N)NC(=O)[C@H](Cc1c[nH]c2ccccc12)NC(=O)[C@H](Cc1c[nH]c2ccccc12)NC(=O)[C@H](CCCCN)NC(=O)[C@H](Cc1c[nH]c2ccccc12)NC(=O)[C@H](Cc1c[nH]c2ccccc12)NC(=O)[C@H](CCCNC(=N)N)NC(=O)[C@@H](N)CCCCN)C(N)=O [HHC36, KRWWKWWRR] (H-KRWWKWWRR-NH2; N-terminus assumed) | 1 | 1 | 38 | 168 | 19 | -8 | 3 (≈ 4.46 µg/mL) | 22 (≈ 32.7 µg/mL) | 1.4 (≈ 2.08 µg/mL) | 60 | 3 (≈ 4.46 µg/mL) | 43 (≈ 63.9 µg/mL) | 1.4 (≈ 2.08 µg/mL) | 0.3 (≈ 0.446 µg/mL) | 11 (≈ 16.4 µg/mL) | – |
| CC(C)[C@H](NC(=O)[C@H](CCCNC(=N)N)NC(=O)[C@H](Cc1ccccc1)NC(=O)[C@H](CCCNC(=N)N)NC(=O)[C@H](Cc1ccccc1)NC(=O)[C@H](CCCNC(=N)N)NC(=O)[C@H](Cc1ccccc1)NC(=O)[C@H](CCC(N)=O)NC(=O)[C@@H](N)Cc1c[nH]cn1)C(=O)N[C@@H](CCCNC(=N)N)C(=O)N[C@@H](CCCNC(=N)N)C(=O)N[C@@H](CCCCN)C(N)=O [HH13, HQFRFRFRVRRK] (H-HQFRFRFRVRRK-NH2; N-terminus assumed) | 40 | 54 | 1 | 0 | 15 | 42 | – | – | – | – | – | – | – | – | – | MIC P. aerug ([13]; PAO1): 50 µg/mL (≈ 28.9 µM); MIC C. albicans [17]: >50 µg/mL; MIC S. epi. [18]: 6 µg/mL (≈ 3.46 µM); MIC S. aureus [8]: 12 µg/mL (≈ 6.93 µM); MIC S. typhi [19]: 12 µg/mL (≈ 6.93 µM); MIC E. faecalis [9]: >50 µg/mL; MIC E. coli [20]: 25 µg/mL (≈ 14.4 µM); induction of IL8 [21]: strongest abilities to induce this chemokine |
